Data published in the supplement of paper PMC10307832.

Experiments:
Assay in all cases: relative viability (nuclei count vs DMSO), 5 days (fraction); higher = more cells survive
EHT 1864 + Linsitinib = compound: C1COCCN1CC2=CC(=O)C(=CO2)OCCCCCSC3=C4C=CC(=CC4=NC=C3)C(F)(F)F [EHT 1864] + C[C@]1(O)C[C@@H](c2nc(-c3ccc4ccc(-c5ccccc5)nc4c3)c3c(N)nccn32)C1 [Linsitinib] (partner 1 µM)
Outline: (§1)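 Lung cancer cell lines, seeded in 1536-well plates, were treated the following day by pin tool with a single drug or with five library-drug doses (not always all listed) in √10 steps on top of a fixed anchor-drug dose. Cells were fixed and nuclei stained in one step after 5 days, and nuclei were counted. Relative viability is the nuclei count for treated wells divided by that for vehicle wells, reported as medians of duplicate plates.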

EHT 1864 + Pemetrexed = compound: C1COCCN1CC2=CC(=O)C(=CO2)OCCCCCSC3=C4C=CC(=CC4=NC=C3)C(F)(F)F [EHT 1864] + Nc1nc2[nH]cc(CCc3ccc(C(=O)N[C@@H](CCC(=O)O)C(=O)O)cc3)c2c(=O)[nH]1 [Pemetrexed] (partner 0.2 µM)
Outline: as §1

EHT 1864 + Vorinostat = compound: C1COCCN1CC2=CC(=O)C(=CO2)OCCCCCSC3=C4C=CC(=CC4=NC=C3)C(F)(F)F [EHT 1864] + O=C(CCCCCCC(=O)Nc1ccccc1)NO [Vorinostat] (partner 1 µM)
Outline: as §1

EHT 1864 + Olaparib = compound: C1COCCN1CC2=CC(=O)C(=CO2)OCCCCCSC3=C4C=CC(=CC4=NC=C3)C(F)(F)F [EHT 1864] + O=C(c1cc(Cc2n[nH]c(=O)c3ccccc23)ccc1F)N1CCN(C(=O)C2CC2)CC1 [Olaparib] (partner 8 µM)
Outline: as §1

Cell Line	relative viability (EHT 1864 + Linsitinib; first compound 0.04 µM)	relative viability (EHT 1864 + Linsitinib; first compound 0.1265 µM)	relative viability (EHT 1864 + Linsitinib; first compound 0.4 µM)	relative viability (EHT 1864 + Linsitinib; first compound 1.265 µM)	relative viability (EHT 1864 + Linsitinib; first compound 4 µM)	relative viability (EHT 1864 + Pemetrexed; first compound 0.04 µM)	relative viability (EHT 1864 + Pemetrexed; first compound 0.1265 µM)	relative viability (EHT 1864 + Pemetrexed; first compound 0.4 µM)	relative viability (EHT 1864 + Pemetrexed; first compound 1.265 µM)	relative viability (EHT 1864 + Pemetrexed; first compound 4 µM)	relative viability (EHT 1864 + Vorinostat; first compound 0.04 µM)	relative viability (EHT 1864 + Vorinostat; first compound 0.1265 µM)	relative viability (EHT 1864 + Vorinostat; first compound 0.4 µM)	relative viability (EHT 1864 + Vorinostat; first compound 1.265 µM)	relative viability (EHT 1864 + Vorinostat; first compound 4 µM)	relative viability (EHT 1864 + Olaparib; first compound 0.04 µM)	relative viability (EHT 1864 + Olaparib; first compound 0.1265 µM)	relative viability (EHT 1864 + Olaparib; first compound 0.4 µM)	relative viability (EHT 1864 + Olaparib; first compound 1.265 µM)	relative viability (EHT 1864 + Olaparib; first compound 4 µM)
NCI-H2126	0.733	0.691	0.746	0.726	0.72	0.707	0.603	0.661	0.726	0.633	0.836	0.711	0.735	0.795	0.681	0.916	0.926	0.887	0.882	0.915
NCI-H2228	0.655	0.635	0.802	0.661	0.478	0.323	0.341	0.318		0.34	0.658	0.641	0.571		0.365	0.614	0.661	0.66		0.61
NCI-H2347	0.92	0.741	0.95	0.941	0.999	0.402	0.403	0.459	0.465	0.419	0.544	0.396	0.506	0.65	0.739	0.624	0.452	0.53	0.541	0.402
NCI-H2405	0.922	0.933	1.06		0.851	1.13	0.945	1.03	1.07	0.973	1.03	0.895	1.06	0.963	0.909	0.895	0.815	0.912	0.788	0.853
NCI-H3122	1.03	0.977	0.932	1.02	0.965	0.189	0.179	0.206	0.202	0.185	0.934	0.76	0.899	1.12	0.992	0.556	0.58	0.627	0.596	0.612
PC-3 [JPC-3]	0.982	0.938	0.942	0.949	0.952	1.07	0.944	1.1	1.09	1.03	0.886	0.718	0.83	0.77	0.801	1.15	1.04	1.14	1.03	1.05
PC-14	0.955	0.973	0.954	0.985	0.99	0.121	0.124	0.137	0.133	0.133	0.791	0.572	0.686	0.743	0.751	0.264	0.36	0.266	0.331	0.265
RERF-LC-KJ	0.874	0.884	0.861	0.861	0.847	0.46	0.443	0.484	0.462	0.504	0.676	0.585	0.69	0.735	0.718	0.902	0.86	0.849	0.913	0.76
SK-LU-1	1.09	1	0.95	1.11	1.12	0.982	0.935	1.03	0.872	0.901	0.81	0.726	0.725	0.707	0.679	0.464	0.515	0.471	0.451	0.447
SK-MES-1	1.06	1.06	1.17	1.16	1.09	0.93	0.852	0.857	0.882	0.85	1.1	0.983	1.1	1.1	1.03	0.768	0.765	0.775	0.737	0.698
SW 1573	0.923	0.943	0.812	0.814	0.709	0.737		0.78	0.869	0.775	0.922		0.674	1.07	0.671	0.499	0.515	0.451	0.472	0.423
UMC-11	1.02	0.978	0.986	0.962	0.963	0.763	0.706	0.843	0.764	0.888	0.372	0.482	0.41	0.398	0.534	0.379	0.383	0.426	0.383	0.356
